Results: ChEMBL document CHEMBL2074081, “Functional characteristics and membrane localization of rat multispecific organic cation transporters, OCT1 and OCT2, mediating tubular secretion of cationic drugs” (J Pharmacol Exp Ther, 1998)

T1: Solute carrier family 22 member 1 (Rattus norvegicus, UniProt Q63089)
T1 sequence (Q63089 whole entry): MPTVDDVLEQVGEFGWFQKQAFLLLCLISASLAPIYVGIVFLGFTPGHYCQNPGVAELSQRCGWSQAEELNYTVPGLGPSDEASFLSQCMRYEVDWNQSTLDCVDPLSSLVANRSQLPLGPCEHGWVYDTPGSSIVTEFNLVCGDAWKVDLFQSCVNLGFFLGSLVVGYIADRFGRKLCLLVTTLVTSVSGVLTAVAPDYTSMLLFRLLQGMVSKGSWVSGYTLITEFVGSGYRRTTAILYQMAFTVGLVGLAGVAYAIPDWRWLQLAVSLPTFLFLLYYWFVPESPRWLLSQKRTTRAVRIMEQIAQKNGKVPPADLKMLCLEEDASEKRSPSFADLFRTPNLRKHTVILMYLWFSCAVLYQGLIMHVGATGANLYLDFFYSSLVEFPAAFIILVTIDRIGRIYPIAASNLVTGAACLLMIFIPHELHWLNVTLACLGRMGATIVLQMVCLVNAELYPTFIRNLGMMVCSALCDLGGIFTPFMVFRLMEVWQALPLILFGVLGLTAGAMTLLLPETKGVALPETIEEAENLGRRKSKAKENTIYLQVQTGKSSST

T2: Solute carrier family 22 member 2 (Rattus norvegicus, UniProt Q9R0W2)
T2 sequence (Q9R0W2 whole entry): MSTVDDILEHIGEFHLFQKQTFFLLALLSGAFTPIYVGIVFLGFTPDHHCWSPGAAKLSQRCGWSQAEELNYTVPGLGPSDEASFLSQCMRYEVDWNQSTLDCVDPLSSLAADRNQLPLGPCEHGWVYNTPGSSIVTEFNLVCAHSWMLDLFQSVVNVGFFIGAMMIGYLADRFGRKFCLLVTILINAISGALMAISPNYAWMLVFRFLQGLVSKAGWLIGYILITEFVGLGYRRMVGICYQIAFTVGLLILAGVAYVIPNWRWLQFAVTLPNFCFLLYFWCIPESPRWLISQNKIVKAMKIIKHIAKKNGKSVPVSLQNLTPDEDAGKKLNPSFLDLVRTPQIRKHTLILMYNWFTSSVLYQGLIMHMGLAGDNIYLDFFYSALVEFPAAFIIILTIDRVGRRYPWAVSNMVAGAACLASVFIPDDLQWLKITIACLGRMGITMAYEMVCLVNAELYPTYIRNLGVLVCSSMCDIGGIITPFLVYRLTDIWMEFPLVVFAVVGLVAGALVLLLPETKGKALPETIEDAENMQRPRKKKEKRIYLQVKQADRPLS

B1: Solute carrier family 22 member 1 (Rattus norvegicus) (protein)
chain: T1 sequence (Q63089 whole entry)
B2: Solute carrier family 22 member 2 (Rattus norvegicus) (protein)
chain: T2 sequence (Q9R0W2 whole entry)

Columns and labels:
[1] = target: T1, Solute carrier family 22 member 1; experiment: TP_TRANSPORTER: inhibition of TEA uptake (basolateral to cell) in OCT1-expressing MDCK cells; format: functional, cell-based
[2] = target: T2, Solute carrier family 22 member 2; experiment: TP_TRANSPORTER: inhibition of TEA uptake (basolateral to cell) in OCT2-expressing MDCK cells; format: functional, cell-based
[3] = target: T2, Solute carrier family 22 member 2; experiment: TP_TRANSPORTER: inhibition of TEA uptake (apical to cell) in OCT2-expressing MDCK cells
[4] = substrate: CC[N+](CC)(CC)CC; experiment: cells, lysate or membranes named

| Molecule | Ki [1] | Ki [2] | Ki [3] | Km [4] |
| --- | --- | --- | --- | --- |
| C[n+]1ccc(-c2ccccc2)cc1 | 0.8 µM | 1.8 µM |  |  |
| CN/C(=N/CCSCc1nc[nH]c1C)NC#N [CIMETIDINE] | 5.7 µM | 9.4 µM |  |  |
| N=C(N)N [GUANIDINE] | 724 µM | 714 µM |  |  |
| CN1CCC[C@H]1c1cccnc1 [NICOTINE] | 64.3 µM | 50.5 µM |  |  |
| CNC(=O)c1cccnc1 [NICOTINYL METHYLAMIDE] | 669 µM | 403 µM |  |  |
| C=C[C@H]1C[N@@]2CC[C@H]1C[C@@H]2[C@@H](O)c1ccnc2ccc(OC)cc12 [QUINIDINE] |  | 19.1 µM |  |  |
| CC[N+](CC)(CC)CC [TETRYLAMMONIUM] | 46.6 µM |  | 52.2 µM |  |
| B1 |  |  |  | 38 µM |
| B2 |  |  |  | 45 µM |
